Several values for one entry are separate records, joined by “and”; a condition that tells them apart may be missing. Identical values can stand only once.
COC1=C(OC)/C(=C/C=O)OC1=O [(2Z)-(3,4-dimethoxy-5-oxofuran-2(5H)-ylidene)ethanal] showed a melting point of 61 °C.
In the case of Nc1ccc(Oc2ccccc2)cc1 [4-phenoxyaniline], the melting point is reported as 84 °C.
CC(=O)Nc1ccccc1 [acetanilide] gave a melting point of 114 °C.
Work on N#CCc1ccc(O)cc1 [4-hydroxyphenylacetonitrile] yielded a melting point of 69 °C.
For OB(O)c1ccc(C(F)(F)F)cc1F [2-fluoro-4-(trifluoromethyl)benzeneboronic acid], the melting point was 114 °C.
For CC(C)CCCC(C)C1CC[C@@]2(C)[C@@]34CCC5[C@H](C)[C@@H](O)CC[C@]5(C)[C@]3(CC[C@]12C)O4 (stereo partly drawn), the melting point was 162 °C.
With CN(C)c1ccc(N=C=S)cc1 [4-dimethylaminophenyl isothiocyanate] the melting point was 67 °C.
ClC(Cl)C(Cl)Cl [1,1,2,2-tetrachloroethane] showed a melting point of -43 °C.
In the case of CCCCCCCCCC(C)=O [2-undecanone], the melting point is reported as 13 °C.
Molecule O=S(=O)(Nc1ccc(Cl)cc1)c1ccccc1 [4-chloro-1-phenylsulfonamidobenzene] has a melting point of 122 °C.
CCCC=NO [butyraldoxime] showed a melting point of -29 °C.
O=C1OC(=O)C23Cc4ccccc4CC12Cc1ccccc1C3 (stereo not drawn) showed a melting point of 269 °C.
With O=[N+]([O-])c1ccc(Cl)c(Cl)c1 [3,4-dichloronitrobenzene] the melting point was 41 °C (2×) and 41.2 °C.
With O=C(O)/C=C/c1ccccc1B(O)O [2-(2-carboxyvinyl)benzeneboronic acid] the melting point was 171 °C.
With CCOC(=O)c1ccc([N+](=O)[O-])o1 [ethyl 5-nitro-2-furoate] the melting point was 100 °C.
Molecule COC(=O)CC(N)=O [methyl malonamate] has a melting point of 39 °C.
With O=C1c2ccccc2Cc2ccccc21 [Anthracen-9(10H)-one] the melting point was 156 °C.
In the case of O=C(O)c1cccnc1 [nicotinic acid], the melting point is reported as 237 °C.
With [2H]C([2H])=C(C(=O)OC([2H])([2H])[2H])C([2H])([2H])[2H] [(~2~H_3_)Methyl 2-(~2~H_3_)methyl(~2~H_2_)prop-2-enoate] the melting point was -48 °C.
Cc1cc(=O)n(-c2ccccc2)n1C [1,5-Dimethyl-2-phenyl-1,2-dihydro-3H-pyrazol-3-one] showed a melting point of 110 °C.
With N#CC1(O)CCN(Cc2ccccc2)CC1 [1-benzyl-4-cyano-4-hydroxypiperidine] the melting point was 97 °C.
CC(C)Nc1ccc(Nc2ccccc2)cc1 [N-isopropyl-n'-phenyl-p-phenylenediamine] gave a melting point of 77 °C.
In the case of CC(C)NCC(O)COc1cccc2ccccc12 (stereo not drawn) [propranolol], the melting point is reported as 162 °C.
For CC1NC(C(=O)O)CC2=C3C=CCC=C3N=C21 (stereo not drawn), the melting point was 244 °C.
For CC(Cl)CCl (stereo not drawn) [1,2-dichloropropane], the melting point was -100 °C.
ClCc1ccccc1CCl [a,a'-dichloro-o-xylene] gave a melting point of 56 °C.
For Nc1cccc(Cl)c1C(=O)O [2-amino-6-chlorobenzoic acid], the melting point was 151 °C.
N#CC(Cl)(Cl)Cl [Trichloroacetonitrile] showed a melting point of -42 °C.
Molecule CN(C)c1ccc(C=O)cc1 [p-dimethylaminobenzaldehyde] has a melting point of 75 °C.
C#CCO [propargyl_alcohol] showed a melting point of -17 °C.
With COc1ccc(NC(=S)c2cc(C(C)(C)C)c(O)c(C(C)(C)C)c2)cc1 the melting point was 129 °C.
NCc1cccc2c(Br)cccc12 [1-(5-bromonaphthalen-1-yl)methanamine] showed a melting point of 139 °C.
NNC(=O)c1ccc(N)cc1 [4-aminobenzhydrazide] gave a melting point of 228 °C.
In the case of CC(=O)OC[C@H]1O[C@@H](S)[C@H](OC(C)=O)[C@@H](OC(C)=O)[C@@H]1OC(C)=O [1-thio-beta-D-glucose tetraacetate], the melting point is reported as 116 °C.
Molecule CC(=O)N(C(C)=O)c1cc(/C=C/C(=O)O)ccc1/C=C/C(=O)O has a melting point of 313 °C.
C[N+](C)(C)C[C@H](O)CC(=O)[O-] [L-Carnitine] showed a melting point of 196 °C.
Molecule CN(C)CC(=O)O [Dimethylglycine] has a melting point of 186 °C.
N#C/C=C/c1cc(C(F)(F)F)cc(C(F)(F)F)c1 [3,5-bis(trifluoromethyl)cinnamonitrile] gave a melting point of 82 °C.
Work on C=CCCC=C [1,5-hexadiene] yielded a melting point of -141 °C.
With C1CCCCC1 [cyclohexane] the melting point was 7 °C.
In the case of CC(=O)c1ccc(-c2ccccc2)cc1 [p-acetylbiphenyl], the melting point is reported as 122 °C.
c1c[nH]nn1 [1,2,3-triazole] showed a melting point of 24 °C.
For ICI [diiodomethane], the melting point was 6 °C.
In the case of O=C(O)c1ccccc1B(O)O [2-carboxybenzeneboronic acid], the melting point is reported as 220 °C.
For CC(=O)c1ccc(C)cc1 [p-methylacetophenone], the melting point was 24 °C.
Molecule CC[Si](CC)(CC)CC [tetraethylsilane] has a melting point of -82 °C.
For O=C5\C=C4/C(C3CCC2(C(CCC2OC(=O)Cc1ccccc1)C3CC4)C)(C)CC5 (stereo not drawn) [testosterone phenylacetate], the melting point was 129 °C.
In the case of CCOC(=O)c1cccc(C(=O)O)c1 [isophthalic acid, monoethyl ester], the melting point is reported as 109 °C.
For O=[N+]([O-])c1ccccc1C=Cc1ccc2ccccc2n1 [2-[2-(2-Nitro-phenyl)-vinyl]-quinoline], the melting point was 102 °C.
Work on ClCCBr [1-bromo-2-chloroethane] yielded a melting point of -17 °C.
O=C1Cc2c1cccc2[N+](=O)[O-] [2-nitrobicyclo[4.2.0]octa-1,3,5-trien-7-one] gave a melting point of 116 °C.
O=C(O)c1ccc2c(c1)no[n+]2[O-] [benzofuroxan-5-carboxylic acid] gave a melting point of 128 °C.
For Cc1cccc(C(=O)O)c1 [3-Methylbenzoic acid], the melting point was 110 °C.
Molecule Brc1c(Br)c(Br)c(Br)c(Br)c1Br [Hexabromobenzene] has a melting point of 306 °C.
For O=C1CC(C(=O)O)c2ccccc21 (stereo not drawn) [3-oxoindane-1-carboxylic acid], the melting point was 116 °C.
For Cc1ccc(C)c(C)c1C [1,2,3,4-tetramethylbenzene], the melting point was -6 °C.
Cc1ccc(C(C)(C)C)cc1 [1-tert-Butyl-4-methylbenzene] gave a melting point of -52 °C.
Work on COc1ccc(S(=O)(=O)Cl)cc1 [4-methoxybenzenesulfonyl chloride] yielded a melting point of 40 °C.
Molecule Cc1c(N)cccc1Cl [3-chloro-2-methylaniline] has a melting point of 2 °C.
Cc1cc(C)n(C(N)=O)n1 [3,5-dimethyl-1h-pyrazole-1-carboxamide] gave a melting point of 113 °C.
For CC(=O)/C(C)=N\O [(3Z)-3-(Hydroxyimino)butan-2-one], the melting point was 75 °C.
In the case of CC(=O)N/C=C/c1ccccc1[N+](=O)[O-] [N-[(E)-2-(2-nitrophenyl)ethenyl]acetamide], the melting point is reported as 150 °C.
COP(=S)(OC)Oc1cc(Cl)c(Cl)cc1Cl [Fenchlorphos] gave a melting point of 38 °C.
With O=C(OC[C@H]1O[C@@H](OC(=O)c2cc(O)c(O)c(OC(=O)c3cc(O)c(O)c(O)c3)c2)[C@H](OC(=O)c2cc(O)c(O)c(OC(=O)c3cc(O)c(O)c(O)c3)c2)[C@@H](OC(=O)c2cc(O)c(O)c(OC(=O)c3cc(O)c(O)c(O)c3)c2)[C@@H]1OC(=O)c1cc(O)c(O)c(OC(=O)c2cc(O)c(O)c(O)c2)c1)c1cc(O)c(O)c(OC(=O)c2cc(O)c(O)c(O)c2)c1 the melting point was 210 °C.
Work on Oc1cccc2ccccc12 [1-naphthol] yielded a melting point of 96 °C.
Molecule CC12CCC(/C(=C/N(O)c3ccccc3)C1=O)C2(C)C (stereo not drawn) has a melting point of 107 °C.
CCc1oc2ccccc2c1C(=O)c1ccc(O)cc1 [benzarone] showed a melting point of 124 °C.
Work on C[SiH](C)Cl [chlorodimethylsilane] yielded a melting point of -111 °C.
